Measured values as given in publication PMC11212140, “Molecular Bidents with Two Electrophilic Warheads as a New Pharmacological Modality” (ACS Central Science, 2024).

Columns and labels:
Assay in all cases: KiNativ profiling in H3255 cells
Format in all cases: cell-based, human
AMPKa1, AMPKa2 = conditions: 2.5 µM
Procedure: (§1) treatment. Cell viability was determined by using CellTiter-Glo (Promega #G7571) according to the manufacturer’s instructions, measuring luminescence using an Envision plate-reader (PerkinElmer Inc.). Dose-response curves were generated using non-linear regression curve fit in GraphPad Prism 9.2.0(GraphPad Software).
(§2) Cellular target engagement assays
(§3) After 6 hours treatment, cells were pelleted, washed with PBS once and lysed with IP lysis buffer (25mMTris-HCl pH 7.4, 150mM NaCl, 1 mM EDTA, 1% NP-40 and 5% glycerol) (Thermo Fisher Scientific, Cat#87788) containing protease/phosphatase inhibitor cocktail (Roche). The protein concentrations were measured by BCA analysis (Pierce). Cell lysates were incubated with 1 μM of biotin conjugated probe (bio-Osimertinib or bio-ZNL-0013) at 4 ℃ overnight, and incubated for 3 more hours at room temperature. Lysates with probe were then incubated with streptavidin beads (Thermo Fisher, #20349) for 2 hours at 4 ℃. The protein-probe complexes on the beads were then subjected to immunoblotting.
(§4) H3255 cells were plated with 6.5x10^6 per condition in fresh media in 15 cm plates and treated the 80% confluency for 2 hours with DMSO or 2.5 μM of ZNL-0056. To harvest cells, plates were washed 3 times with cold PBS, then collected by scraping into 4 mL of cold PBS containing protease and phosphatase inhibitors. Cells were pelleted by centrifugation at 1350 g at 4 ℃ for 5 minutes and immediately frozen in liquid nitrogen. The frozen samples were sent to ActivX Biosciences (La Jolla, CA) for the remainder of the KiNativ profiling experiment4.
(§5) Protein expression and purification
(§6) Human EGFR kinase domain (residues 696-1022) with T790M and V948R mutations was cloned with an N-terminal, protease cleavable His -GST tag. Recombinant protein was expressed in SF9 insect cells using baculovirus generated from the pFastBac system (Thermo Fisher) .
(§7) Briefly, cells at a density of ~2x10^6 cells/mL were infected with 1% (v/v) virus stock and grown for ~72 hours before harvesting and freezing the cell pellet . Infected cells were lysed in buffer A (50 mM Tris pH 8.0, 500 mM NaCl, 5% glycerol, 0.5 mM Tris(2-carboxyethyl)phosphine [TCEP]), ultracentrifuged at >200,000 rcf for 1 h, and the supernatant flo wed through Ni-NTA resin by gravity. The resin was washed with buffer A supplemented with 40 mM imidazole by […]

CDK7 = tested on: T1, CDK7; conditions: 2.5 µM
T1 construct: purchased ActivX Biosciences (KiNativ)
Procedure: as §1, §2, §3, §4, §5, §6, §7

CDKL3 = tested on: T2, CDKL3; conditions: 2.5 µM; Lys2; DIKPENILVSQSGITK
T2 construct: purchased ActivX Biosciences (KiNativ)
Procedure: as §1, §2, §3, §4, §5, §6, §7

CK1g1, CK1g2, CK1g3 = conditions: 2.5 µM; ATP Loop; KIGCGNFGELR
Procedure: as §1, §2, §3, §4, §5, §6, §7

CaMK1a = tested on: T3, CaMK1a; conditions: 2.5 µM; Lys1; LVAIKCIAK
T3 construct: purchased ActivX Biosciences (KiNativ)
Procedure: as §1, §2, §3, §4, §5, §6, §7

IRE1 = tested on: T4, IRE1; conditions: 2.5 µM; Lys2; DLKPHNILISMPNAHGK
T4 construct: purchased ActivX Biosciences (KiNativ)
Procedure: as §1, §2, §3, §4, §5, §6, §7

ITPK1 = tested on: T5, ITPK1; conditions: 2.5 µM; ATP; NFSAGTSDRESIFFNSHNVSKPESSSVLTELDKIEGVFERPSDEVIR
T5 construct: purchased ActivX Biosciences (KiNativ)
Procedure: as §1, §2, §3, §4, §5, §6, §7

JNK1, JNK2, JNK3 = conditions: 2.5 µM; Lys2; DLKPSNIVVK
Procedure: as §1, §2, §3, §4, §5, §6, §7

MPSK1 = tested on: T6, MPSK1; conditions: 2.5 µM; Lys2; DLKPTNILLGDEGQPVLMDLGSMNQACIHVEGSR
T6 construct: purchased ActivX Biosciences (KiNativ)
Procedure: as §1, §2, §3, §4, §5, §6, §7

MSK1 domain1 = tested on: T7, MSK1 domain1; conditions: 2.5 µM; Lys2; DIKLENILLDSNGHVVLTDFGLSK
T7 construct: MSK1 domain1; purchased ActivX Biosciences (KiNativ)
Procedure: as §1, §2, §3, §4, §5, §6, §7

NDR2 = tested on: T8, NDR2; conditions: 2.5 µM
T8 construct: purchased ActivX Biosciences (KiNativ)
Procedure: as §1, §2, §3, §4, §5, §6, §7

NEK2 = tested on: T9, NEK2; conditions: 2.5 µM; Lys2; DLKPANVFLDGK
T9 construct: purchased ActivX Biosciences (KiNativ)
Procedure: as §1, §2, §3, §4, §5, §6, §7

NuaK1 = tested on: T10, NuaK1; conditions: 2.5 µM; Lys1; VVAIKSIR
T10 construct: purchased ActivX Biosciences (KiNativ)
Procedure: as §1, §2, §3, §4, §5, §6, §7

PCTAIRE2 = tested on: T11, PCTAIRE2; conditions: 2.5 µM; Lys2; DLKPQNLLINEK
T11 construct: purchased ActivX Biosciences (KiNativ)
Procedure: as §1, §2, §3, §4, §5, §6, §7

PDK1 = tested on: T12, PDK1; conditions: 2.5 µM; Lys1; EYAIKILEK
T12 construct: purchased ActivX Biosciences (KiNativ)
Procedure: as §1, §2, §3, §4, §5, §6, §7

PIK3CB = tested on: T13, PIK3CB; conditions: 2.5 µM; ATP; VFGEDSVGVIFKNGDDLRQDMLTLQMLR
T13 construct: purchased ActivX Biosciences (KiNativ)
Procedure: as §1, §2, §3, §4, §5, §6, §7

PIP4K2C = tested on: T14, PIP4K2C; conditions: 2.5 µM, ATP
T14 construct: purchased ActivX Biosciences (KiNativ)
Procedure: as §1, §2, §3, §4, §5, §6, §7

PKR = tested on: T15, PKR; conditions: 2.5 µM
T15 construct: purchased ActivX Biosciences (KiNativ)
Procedure: as §1, §2, §3, §4, §5, §6, §7

SLK = tested on: T16, SLK; conditions: 2.5 µM
T16 construct: purchased ActivX Biosciences (KiNativ)
Procedure: as §1, §2, §3, §4, §5, §6, §7

STLK5 = tested on: T17, STLK5; conditions: 2.5 µM
T17 construct: purchased ActivX Biosciences (KiNativ)
Procedure: as §1, §2, §3, §4, §5, §6, §7

Wnk1, Wnk2, Wnk4 = conditions: 2.5 µM; Activation Loop; IGDLGLATLKR
Procedure: as §1, §2, §3, §4, §5, §6, §7

Wnk1, Wnk2 = conditions: 2.5 µM; ATP Loop; GSFKTVYK
Procedure: as §1, §2, §3, §4, §5, §6, §7

YANK3 = tested on: T18, YANK3; conditions: 2.5 µM; Lys2; DVKPDNILLDER
T18 construct: purchased ActivX Biosciences (KiNativ)
Procedure: as §1, §2, §3, §4, §5, §6, §7

[1] = Activation Loop, IGDFGLVTSLKNDGKR
[2] = Activation Loop, YSVKVLPWLSPEVLQQNLQGYDAK

SMILES	Inhibition (AMPKa1, AMPKa2; Lys1, VAVKILNR)	Inhibition (AMPKa1, AMPKa2; Lys2, DLKPENVLLDAHMNAK)	Inhibition (CDK7; Lys1, DKNTNQIVAIKK)	Inhibition (CDK7; Lys2, DLKPNNLLLDENGVLK)	Inhibition (CDKL3)	Inhibition (CK1g1, CK1g2, CK1g3)	Inhibition (CaMK1a)	Inhibition (IRE1)	Inhibition (ITPK1)	Inhibition (JNK1, JNK2, JNK3)	Inhibition (MPSK1)	Inhibition (MSK1 domain1)	Inhibition (NDR2; Lys1, DTGHIYAMKILR)	Inhibition (NDR2; Lys2, DIKPDNLLLDAK)	Inhibition (NEK2)	Inhibition (NuaK1)	Inhibition (PCTAIRE2)	Inhibition (PDK1)	Inhibition (PIK3CB)	Inhibition (PIP4K2C; TLVIKEVSSEDIADMHSNLSNYHQYIVK)	further results
C=CC(=O)Nc1cc(Nc2nccc(-c3cn(C)c4ccccc34)n2)c(OC)cc1N(C)CCN(C)C [Osimertinib, osimertinib, reference compound]	6.4%	-33.2%	34.0%	14.2%	4.6%	-14.3%	7.0%	13.6%	22.9%	13.4%	0.8%	-10.4%	-19.7%	-0.656%	-4.3%	2.8%	2.6%	-20.7%	-1.4%	59.0%	Inhibition (PIP4K2C; VKELPTLKDMDFLNK): 55.5%; Inhibition (PKR; [1]): -12.9%; Inhibition (PKR; Lys2, DLKPSNIFLVDTK): 6.2%; Inhibition (SLK; Lys1, AQNKETSVLAAAKVIDTK): -11.7%; Inhibition (SLK; Lys2, DLKAGNILFTLDGDIK): 8.3%; Inhibition (STLK5; [2]): 2.8%; Inhibition (STLK5; Lys2, SVKASHILISVDGK): 3.2%; Inhibition (Wnk1, Wnk2, Wnk4): -32.3%; Inhibition (Wnk1, Wnk2): -14.8%; Inhibition (YANK3): 1.4%
C=CC(=O)Nc1cc(C(=O)Nc2nc3cccc(C)c3n2[C@@H]2CCCCN(C(=O)C=C)C2)cs1 [ZNL-0056]	20.9%	9.7%	-17.3%	-3.1%	-6.0%	13.6%	5.1%	-29.1%	-0.632%	-5.1%	7.6%	10.0%	11.0%	3.3%	-9.4%	17.0%	-15.1%	17.6%	-22.3%	60.9%	Inhibition (PIP4K2C; VKELPTLKDMDFLNK): 53.5%; Inhibition (PKR; [1]): 11.7%; Inhibition (PKR; Lys2, DLKPSNIFLVDTK): 0.451%; Inhibition (SLK; Lys1, AQNKETSVLAAAKVIDTK): -4.8%; Inhibition (SLK; Lys2, DLKAGNILFTLDGDIK): -22.3%; Inhibition (STLK5; [2]): -9.2%; Inhibition (STLK5; Lys2, SVKASHILISVDGK): -41.2%; Inhibition (Wnk1, Wnk2, Wnk4): 1.3%; Inhibition (Wnk1, Wnk2): -0.1%; Inhibition (YANK3): -11.7%
